Here are results for eleven compounds from patent US8778966B2, “Quinolinone derivatives as PARP and tank inhibitors” (Janssen Pharmaceutica, NV, priority 2007, dated 2014).

This assay addresses T1, TANK-2 enzyme (Homo sapiens, UniProt Q9H2K2).
T1 construct: made in house
T1 sequence (Q9H2K2 1-1166): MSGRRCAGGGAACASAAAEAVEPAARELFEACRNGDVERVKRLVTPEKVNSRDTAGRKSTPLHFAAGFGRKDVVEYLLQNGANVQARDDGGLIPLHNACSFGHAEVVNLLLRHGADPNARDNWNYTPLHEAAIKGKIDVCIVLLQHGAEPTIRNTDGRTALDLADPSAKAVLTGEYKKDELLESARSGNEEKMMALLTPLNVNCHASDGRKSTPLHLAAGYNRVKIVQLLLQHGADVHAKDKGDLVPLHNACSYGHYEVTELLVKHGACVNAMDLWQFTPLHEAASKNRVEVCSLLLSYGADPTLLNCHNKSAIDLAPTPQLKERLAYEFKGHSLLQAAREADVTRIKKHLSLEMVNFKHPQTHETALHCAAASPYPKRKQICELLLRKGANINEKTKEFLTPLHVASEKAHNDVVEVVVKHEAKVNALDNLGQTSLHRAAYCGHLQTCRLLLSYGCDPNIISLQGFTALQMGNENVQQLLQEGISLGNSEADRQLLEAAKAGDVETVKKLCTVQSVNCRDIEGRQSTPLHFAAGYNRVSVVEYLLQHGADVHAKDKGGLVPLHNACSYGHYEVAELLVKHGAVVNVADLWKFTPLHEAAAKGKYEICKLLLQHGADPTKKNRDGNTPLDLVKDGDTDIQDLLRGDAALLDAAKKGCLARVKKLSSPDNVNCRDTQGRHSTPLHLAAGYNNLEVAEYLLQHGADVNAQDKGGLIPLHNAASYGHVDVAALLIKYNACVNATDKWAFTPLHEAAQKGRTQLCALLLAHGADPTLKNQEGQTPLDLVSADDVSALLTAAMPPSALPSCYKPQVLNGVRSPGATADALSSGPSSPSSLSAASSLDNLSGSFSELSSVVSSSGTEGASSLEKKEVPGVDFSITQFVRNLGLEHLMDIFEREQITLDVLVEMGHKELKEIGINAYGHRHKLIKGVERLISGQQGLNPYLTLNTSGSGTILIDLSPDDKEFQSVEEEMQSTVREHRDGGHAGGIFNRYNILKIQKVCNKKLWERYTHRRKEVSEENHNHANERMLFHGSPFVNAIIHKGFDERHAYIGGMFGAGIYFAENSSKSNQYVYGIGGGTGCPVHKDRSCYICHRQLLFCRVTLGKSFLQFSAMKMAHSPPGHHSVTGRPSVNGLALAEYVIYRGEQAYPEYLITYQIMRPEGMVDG
The assay can be described thus: In vitro Scintillation Proximity Assay (SPA) for TANK-2 inhibitory activity. It counts as biochemical. The settings on record: read-out: in vitro SPA assay TANK-2 pIC50 (converted). Put shortly: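 Results are pIC50 values, with IC50 interpolated linearly around 50% of blank-subtracted control cpm. They come from a scintillation proximity read of TANK-2 (8 μg/ml) self-modification with [3H]-NAD+/NAD, incubated 120 min at room temperature in pH 7.4 Tris buffer containing MgCl2 and DTT. Compounds were first screened at 10^−5 M.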

On to `CCc1cc2ccc(C(C)(C#N)Cc3cccc(CN4CCN(C)CC4)c3)cc2[nH]c1=O` (centres unmarked) [Compound 57], for which the IC50 is 126 nM.

In the case of `CCc1cc2ccc(C(C)(C#N)Cc3nc(OC)cc(OC)n3)cc2[nH]c1=O` (centres unmarked) [Compound 43], the IC50 is 158 nM.

With `CCc1cc2ccc(C(C)(C#N)Cc3cc(C)ccc3C)cc2[nH]c1=O` (centres unmarked) [Compound 78], the IC50 was 158 nM.

Turning to `CCc1cc2ccc(C(C)(C#N)CCOc3ccc([N+](=O)[O-])cc3)cc2[nH]c1=O` (centres unmarked) [Compound 54], the IC50 was 158 nM.

On to `CCc1cc2ccc(C(C)(C#N)Cc3c(C)c(C)c(C)c(C)c3C)cc2[nH]c1=O` (centres unmarked) [Compound 89], for which the IC50 is 316 nM.

Regarding `CCc1cc2ccc(C(C)(C#N)Cc3nnsc3Cl)cc2[nH]c1=O` (centres unmarked) [Compound 42], the IC50 was 79.4 nM.

For the compound `CCc1cc2ccc([C@@](C)(C#N)Cc3ccccc3)cc2[nH]c1=O` (single isomer, unassigned) [Compound 46], the IC50 was 25.1 nM.

For `CCc1cc2ccc(C(C)(C#N)Cc3cccc(CN4CCOCC4)c3)cc2[nH]c1=O` (centres unmarked) [Compound 58], the IC50 is 316 nM.

Regarding `CCc1cc2ccc(C(C)(C#N)Cc3ccc(F)c(C)c3)cc2[nH]c1=O` (centres unmarked) [Compound 79], the IC50 was 79.4 nM.

For `CCc1cc2ccc(C(C)(C#N)Cc3ccc(Cl)c(C(F)(F)F)c3)cc2[nH]c1=O` (centres unmarked) [Compound 82], the IC50 is 398 nM.

On to `CCc1cc2ccc(C(C)(C#N)Cc3cccc(OCCCN4CCOCC4)c3)cc2[nH]c1=O` (centres unmarked) [Compound 68], for which the IC50 is 63.1 nM.
